2 molecules from patent publication US10758513B2, “Modulators of mitochondrial protein import” (THE REGENTS OF THE UNIVERSITY OF CALIFORNIA, priority 2011, dated 2020) can be followed below.

Each structure is given as a SMILES string. In brackets after ≈: the same amount, converted by molar mass.

One data set concerns HEK293 cells. Briefly: Treatment of HEK293 cells with MitoBloCK-6. In kind it is cell-based. To be noted: unpublished data. The method, then:
For microscopy experiments, HeLa or HEK293 cells were transiently transfected with Su9-EGFP (Lipofectamine, Invitrogen) at 80% confluency. 12 hours post transfection, cells were co-labeled with Mitotracker red CMXRos (Invitrogen) and visualized with a microscope (Axiovert 200M Carl Zeiss) using a Plan-Fluor 63× oil objective. Images were acquired at room temperature with a charge-coupled device camera (ORCA ER, Hamamatsu Photonics) controlled by Axiovision software (Carl Zeiss). Image files were processed by Photoshop software (Adobe). […] For cyt c release assays, a cell fractionation kit (MitoSciences) was used. Briefly, HeLa or HEK293 cells were grown in 10 cm^2 dishes to 80% confluency and then cells were treated with DMSO or MitoBloCK-6 in complete medium for 12-16 h. […] Cells were fractionated to obtain cytosolic and mitochondrial fractions; 100 μg of each fraction was analyzed by SDS-PAGE. Blots were probed with ApoTrack cyt c apoptosis antibody cocktail (MitoSciences).

The next data set deals with Erv2 (Saccharomyces cerevisiae, UniProt Q12284). The experiment in a line: In vitro Erv2 activity, Amplex Red-HRP assay. The class given is biochemical, yeast.
In a further data set the target is T1, Erv1 (Saccharomyces cerevisiae, UniProt P27882).
T1 construct: made in house
T1 sequence (P27882 1-189): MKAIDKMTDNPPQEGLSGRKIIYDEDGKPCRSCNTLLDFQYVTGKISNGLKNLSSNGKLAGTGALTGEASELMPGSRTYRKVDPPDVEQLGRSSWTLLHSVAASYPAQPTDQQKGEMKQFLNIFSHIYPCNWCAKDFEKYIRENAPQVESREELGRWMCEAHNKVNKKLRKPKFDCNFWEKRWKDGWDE
Briefly: Erv1-His pull-down of partner proteins from mitochondria. The class given is binding, yeast. The note with it: 50 μM, 30 min. On the procedure:
(A) Mitochondria from a strain expressing C-terminal histidine-tagged Erv1 were incubated with 50 μM MitoBloCK-6 or 1% DMSO for 30 min at 25° C. followed by solubilization in 1% digitonin buffer. As a control, 100 μg of extract was withdrawn (T), and 500 μg lysate was incubated with Ni+^2-agarose beads. The beads were washed and bound proteins (B) were eluted with SDS-PAGE sample buffer. To test effectiveness of binding, 100 μg of the unbound protein fraction (S) was also included. Proteins were analyzed by immunoblotting with polyclonal antibodies against Mia40, Erv1, and cyt c. (B) Recombinant Erv1 was preincubated with MitoBloCK-6 or 1% DMSO for 1 hr at 25° C. and then Erv1 (1 μM) was incubated with reduced Tim13 (15 μM) and Mia40 (1 μM) in a time course assay (Tienson et al., 2009). Aliquots were removed at the indicated times and free thiols on Tim13 were modified with AMS addition. Oxidized and reduced Tim13 were detected by non-reducing SDS-PAGE and immunoblotting with antibodies against Tim13.
MitoBloCK-6 was preincubated with mitochondria isolated from the Erv1-His strain followed by solubilization in 1.0% digitonin and Erv1-His was purified with Ni′ agarose. In DMSO treated cells, a small fraction of the Mia40 and half of the cyt c co-purified with Erv1, as reported previously (Tienson et al., 2009). […]

For a further data set, the system named is tim10-1 mutant. The experiment in a line: Yeast growth inhibition (MIC50), tim10-1 mutant. In kind it is cell-based. The note with it: Saccharomyces cerevisiae, read-out: MIC50 that inhibited growth of the tim10-1 mutant. The method, then:
The screen was conducted with an integrated robotic system with plate scheduling. Briefly, diversity oriented commercial libraries of drug-like compounds from Chembridge and Asinex were screened against the tim10-1 strain at a concentration of approximately 10 μM. The screen encompassed a total of approximately 50,000 compounds dissolved in DMSO. Yeast in YPD medium was aliquoted into 384-well plates followed by compound addition with robotic pinning into the assay wells. DMSO was the vehicle for the small molecules, and several plate columns that contained only 1% DMSO were included as a control with the pinned compounds. As a negative control for growth, wells pinned with the mitochondrial uncoupler CCCP, which caused lethality, were also included. After 2 days of incubation at 25° C., cultures in each well were measured for optical density (O.D.) as a measure of growth. A typical reading for the positive control was OD600=0.8. […]
(§1) A primary screen was performed using freshly streaked tim10-1 diluted in YPD to an OD600 of approximately 0.0002 and kept on ice throughout the screening run. […] Each plate was shaken in a Beckman orbital shaker to resuspend settled cells, and the OD600 in each well was read by a Wallac Victor plate reader (Perkin Elmer). The top 600 growth inhibitory compounds were determined and assembled into two plates. […]

For the next data set, the system named is tim23 mutant. The experiment in a line: Yeast growth inhibition (MIC50), tim23 mutant. The class given is cell-based. To be noted: Saccharomyces cerevisiae; disrupted for prd5 and snq2.
The subject of data set [1] is strains lacking the mitochondrial genome (rho null). Briefly: Yeast growth inhibition, rho null strains. In kind it is cell-based.
Excerpt: In general, a standard set of genetic and molecular techniques were used to generate the strains in this study (31, 32). Screening strains were generated based on previously characterized temperature sensitive mutants (see supplementary table 1). The snq1 and pdr5 deletions were introduced in each strain by strain mating with MDY326 or PCR-mediated deletion (33, 34). Overexpression strains were generated by transforming 2p yeast shuttle vectors carrying the gene of interest with the native promoter into the tim10-1 strain using a standard LiCl protocol (35). Transformed yeast was maintained on selective media appropriate for the plasmid's auxotrophic marker. Strains lacking mitochondrial DNA (rho null) were generated by two rounds of selection of the parent on YPD plates supplemented with ethidium bromide (40 μg/ml) followed by two rounds of single colony selection on YPD plates.
as §1

Erv2, sequence (Q12284 whole entry): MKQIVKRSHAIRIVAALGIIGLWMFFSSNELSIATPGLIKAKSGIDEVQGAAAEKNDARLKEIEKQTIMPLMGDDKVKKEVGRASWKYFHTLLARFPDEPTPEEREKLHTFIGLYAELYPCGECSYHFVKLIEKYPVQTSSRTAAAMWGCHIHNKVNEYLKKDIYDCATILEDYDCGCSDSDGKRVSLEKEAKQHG

In the case of `Oc1c(Cl)cc(Cl)cc1/C=N/c1ccc(Nc2ccccc2)cc1` [MitoBloCK-6], in the data set on HEK293 cells, the “morphology and viability in HEK293 cells” value is given as “showed similar results”. Besides, the IC50 (usually the concentration needed to halve the response being measured) against Erv2 turned out to be 1.4 µM. Also, on Erv1, the “binding of Mia40 to Erv1 decreased by” value was 75% and the “binding of cyt c to Erv1 decreased by” value is 95%.
As to `NC(=S)N/N=C/c1c(O)c(Br)cc2oc3c(c12)CCCC3` [MitoBloCK-1], the MIC50 (in general, the lowest concentration that inhibits either 50% of growth or 50% of the strains tested, depending on the study) is roughly 1 µM (≈ 0.368 µg/mL) in the data set on tim10-1 mutant and greater than 200 µM in the data set with tim23 mutant. In addition, in data set [1], the “sensitivity of rho null strains” value is recorded as “sensitive”.
